Broadly, the pEC50 is −log10 of the EC50, conventionally taken in molar units. As usually defined, the pIC50 is the negative decadic logarithm of the IC50, by convention in mol/L.

From ChEMBL document CHEMBL1772979, “SAR studies on a series of N-benzyl-4-heteroaryl-1-(phenylsulfonyl)piperazine-2-carboxamides: potent inhibitors of the polymerase enzyme (NS5B) of the hepatitis C virus” (Bioorg Med Chem Lett, 2011) come the findings set out here.

Structures are written as SMILES. pEC50, pIC50: −log10 of the molar value.

Assay [1] deals with Hepatitis C virus. Put plainly: Antiviral activity against Hepatitis C virus subtype 1b by cell based replicon assay. The class given is functional, organism-based, Hepacivirus hominis, genotype 1b. The conditions noted are these: for pEC50: Hepatitis C virus, genotype 1b, read-out: EC50.
The subject of assay [2] is Hepatitis C virus. Put plainly: Antiviral activity against Hepatitis C virus subtype 1a by cell based replicon assay. To be noted: for pEC50: Hepatitis C virus, subtype 1a, read-out: EC50. The assay is classed as functional, organism-based, Hepacivirus hominis. (In general: In antiviral work, replicon cells carry a viral genome segment that copies itself.)
Assay [3] can be described thus: Inhibition of Hepatitis C virus subtype 1a wild-type NS5B expressed in Escherichia coli BL21(DE3) assessed as decrease in [3H]-UTP incorporation using polyA template/biotin-labeled dT primer by SPA method.
Assay [4] concerns Hepatitis C virus. The assay can be described thus: Inhibition of Hepatitis C virus subtype 1b wild-type NS5B expressed in Escherichia coli BL21(DE3) assessed as decrease in [3H]-UTP incorporation using polyA template/biotin-labeled dT primer by SPA method.
Assay [5] relates to Hepatitis C virus. Put plainly: Antiviral activity against Hepatitis C virus expressing NS5B Y452H mutant by cell based replicon assay. The class given is functional, organism-based, Hepacivirus hominis.

For `CNC(=O)c1ccc(N2CCN(S(=O)(=O)c3ccc(OC(F)(F)F)cc3)C(C(=O)NCc3ccc(OC(F)(F)F)cc3)C2)nn1` (racemic), the figures for the negative logarithm of the EC50 (pEC50) with Hepatitis C virus [1] and in the assay with Hepatitis C virus [2] were 7.70 and 6.48, respectively.
Turning to `COc1cc(N2CCN(S(=O)(=O)c3ccc(F)cc3)C(C(=O)NCc3ccc(OC(F)(F)F)cc3)C2)nc(OC)n1` (racemic), the negative logarithm of the EC50 (pEC50) with Hepatitis C virus [1] is 5.09. Further, in the assay with Hepatitis C virus [2], the EC50 entry is “Not Active”.
As to `CCc1ccc(S(=O)(=O)N2CCN(c3cc(OC)nc(OC)n3)CC2C(=O)N(C)Cc2ccccc2)cc1` (racemic), the pEC50 in the assay on Hepatitis C virus [1] and in the assay with Hepatitis C virus [2] was < 4.30 each time.
On to `COc1cc(N2CCN(S(=O)(=O)c3ccc(OC(F)(F)F)cc3)C(C(=O)NCc3ccc(OC(F)(F)F)cc3)C2)nc(OC)n1` (racemic), for which the negative-log EC50 (pEC50) with Hepatitis C virus [1] is 6.15; in the assay on Hepatitis C virus [2] it was 5.09.
`CCc1ccc(S(=O)(=O)N2CCN(c3cc(OC)nc(OC)n3)CC2C(=O)NCc2ccccc2Cl)cc1` (racemic): the pEC50 in the assay on Hepatitis C virus [1] is 5.43; with Hepatitis C virus [2], < 4.30.
As to `O=C(O)c1cnc(N2CCN(S(=O)(=O)c3ccc(OC(F)(F)F)cc3)C(C(=O)NCc3ccc(OC(F)(F)F)cc3)C2)cn1` (racemic), the EC50 result in the assay on Hepatitis C virus [1] and with Hepatitis C virus [2] was “Not Active” each time.
For the compound `COc1ccc(S(=O)(=O)N2CCN(c3cc(OC)nc(OC)n3)CC2C(=O)NCc2ccc(OC(F)(F)F)cc2)cc1` (racemic), the pEC50 was 5.23 in the assay with Hepatitis C virus [1] and 4.19 in the assay with Hepatitis C virus [2].
The like results for `CCc1ccc(S(=O)(=O)N2CCN(c3cc(OC)nc(OC)n3)C[C@H]2C(=O)NCc2ccc(OC)cc2)cc1` were, in that order, 5.00 and 4.85.
Turning to `CCc1ccc(S(=O)(=O)N2CCN(c3cc(OC)nc(OC)n3)CC2C(=O)NCC2CC2)cc1` (racemic), the EC50 entry in the assay on Hepatitis C virus [1] and in the assay on Hepatitis C virus [2] was “Not Active” in each case.
For `COc1cc(N2CCN(S(=O)(=O)c3cccc(C)c3)C(C(=O)NCc3ccc(OC(F)(F)F)cc3)C2)nc(OC)n1` (racemic), the negative-log EC50 (pEC50) with Hepatitis C virus [1] was 5.85; in the assay on Hepatitis C virus [2] it was 4.39.
The like results for `COc1cc(N2CCN(S(=O)(=O)c3cccc(OC(F)(F)F)c3)C(C(=O)NCc3ccc(OC(F)(F)F)cc3)C2)nc(OC)n1` (racemic) were, in that order, 5.28 and 4.24.
Take `CCc1ccc(S(=O)(=O)N2CCN(c3cc(OC)nc(OC)n3)CC2C(=O)NCc2ccc(OC)cc2)cc1` (racemic): the negative logarithm of the EC50 (pEC50) in the assay on Hepatitis C virus [1] was 5.66; in the assay with Hepatitis C virus [2], 4.64. The pIC50 is 4.90 in assay [3] and 6.52 in the assay on Hepatitis C virus [4].
For `CNC(=O)c1ccc(N2CCN(S(=O)(=O)c3ccc(OC(F)(F)F)cc3)[C@@H](C(=O)NCc3ccc(OC(F)(F)F)cc3)C2)nn1`, the values for the pEC50 with Hepatitis C virus [1] and in the assay with Hepatitis C virus [2] were 8.15 and 6.66, respectively.
The like results for `COC(=O)c1cnc(N2CCN(S(=O)(=O)c3ccc(OC(F)(F)F)cc3)C(C(=O)NCc3ccc(OC(F)(F)F)cc3)C2)cn1` (racemic) were, in that order, 6.85 and 5.80.
The like results for `CCc1ccc(S(=O)(=O)N2CCN(c3cc(OC)nc(OC)n3)CC2C(=O)NCc2ccc(OC(F)(F)F)cc2)cc1` (racemic) were, in that order, 6.30 and 5.04.
The like results for `COC(=O)c1ccc(N2CCN(S(=O)(=O)c3ccc(OC(F)(F)F)cc3)C(C(=O)NCc3ccc(OC(F)(F)F)cc3)C2)nn1` (racemic) were, in that order, 6.42 and 5.41.
Regarding `CCC(C)(C)NC(=O)c1ccc(N2CCN(S(=O)(=O)c3ccc(OC(F)(F)F)cc3)C(C(=O)NCc3ccc(OC(F)(F)F)cc3)C2)nn1` (racemic), the figures for the pEC50 with Hepatitis C virus [1] and with Hepatitis C virus [2] were 7.37 and 6.34, respectively.
The like results for `COc1cc(N2CCN(S(=O)(=O)c3ccc(-c4ccccc4)cc3)C(C(=O)NCc3ccc(OC(F)(F)F)cc3)C2)nc(OC)n1` (racemic) were, in that order, 5.62 and 4.25.
Turning to `CCc1ccc(S(=O)(=O)N2CCN(c3cc(OC)nc(OC)n3)CC2C(=O)NCc2ccccc2)cc1` (racemic), in the assay on Hepatitis C virus [1], the pEC50 was 5.06. For the same compound, the EC50 result in the assay with Hepatitis C virus [2] is recorded as “Not Active”.
For `CCc1ccc(S(=O)(=O)N2CCN(c3cc(OC)nc(OC)n3)CC2C(=O)NCc2ccc(OC)c(OC)c2)cc1` (racemic), the pEC50 with Hepatitis C virus [1] is 6.05; in the assay on Hepatitis C virus [2] it was 4.84.
The like results for `CCc1ccc(S(=O)(=O)N2CCN(c3cc(OC)nc(OC)n3)CC2C(=O)NCc2ccc(OC)cc2OC)cc1` (racemic) were, in that order, 5.92 and 4.91.
The like results for `CCc1ccc(S(=O)(=O)N2CCN(c3cc(OC)nc(OC)n3)CC2C(=O)NCc2ccc(Cl)cc2Cl)cc1` (racemic) were, in that order, 5.62 and < 4.30.
Turning to `COc1cc(N2CCN(S(=O)(=O)c3ccc(OC)c(OC)c3)C(C(=O)NCc3ccc(OC(F)(F)F)cc3)C2)nc(OC)n1` (racemic), the negative-log EC50 (pEC50) is 5.96 in the assay on Hepatitis C virus [1] and 4.89 in the assay on Hepatitis C virus [2].
The like results for `CCc1ccc(S(=O)(=O)N2CCN(c3cc(OC)nc(OC)n3)C[C@@H]2C(=O)NCc2ccc(OC)cc2)cc1` were, in that order, 6.05 and 5.21.
With `O=C(O)c1ccc(N2CCN(S(=O)(=O)c3ccc(OC(F)(F)F)cc3)C(C(=O)NCc3ccc(OC(F)(F)F)cc3)C2)nn1` (racemic), the EC50 entry with Hepatitis C virus [1] and in the assay with Hepatitis C virus [2] was “Not Active” in each case.
Turning to `COc1cc(N2CCN(S(=O)(=O)c3ccccc3)C(C(=O)NCc3ccc(OC(F)(F)F)cc3)C2)nc(OC)n1` (racemic), the pEC50 with Hepatitis C virus [1] was 4.69. In the assay with Hepatitis C virus [2], the EC50 entry was “Not Active”.
Turning to `CC[C@H](C)NC(=O)c1ccc(N2CCN(S(=O)(=O)c3ccc(OC(F)(F)F)cc3)[C@@H](C(=O)NCc3ccc(OC(F)(F)F)cc3)C2)nn1`, the negative logarithm of the EC50 (pEC50) in the assay with Hepatitis C virus [5] is 6.40. Besides, in the assay on Hepatitis C virus [4], the negative logarithm of the IC50 (pIC50) was 7.89.
Turning to `CCc1ccc(S(=O)(=O)N2CCN(c3cc(OC)nc(OC)n3)CC2C(=O)NCc2ccc(C)cc2)cc1` (racemic), the results for the pEC50 with Hepatitis C virus [1] and in the assay with Hepatitis C virus [2] were 5.77 and 4.69, respectively.
The like results for `CNC(=O)c1cnc(N2CCN(S(=O)(=O)c3ccc(OC(F)(F)F)cc3)C(C(=O)NCc3ccc(OC(F)(F)F)cc3)C2)cn1` (racemic) were, in that order, 6.66 and 5.65.
The like results for `CCc1ccc(S(=O)(=O)N2CCN(c3cc(OC)nc(OC)n3)CC2C(=O)NCc2ccc(-c3cccs3)cc2)cc1` (racemic) were, in that order, 5.92 and 4.33.
Take `COc1cc(N2CCN(S(=O)(=O)c3cccc(C(F)(F)F)c3)C(C(=O)NCc3ccc(OC(F)(F)F)cc3)C2)nc(OC)n1` (racemic): the pEC50 was 5.21 in the assay on Hepatitis C virus [1] and 4.28 in the assay with Hepatitis C virus [2].
`COc1cc(N2CCN(S(=O)(=O)c3ccccc3F)C(C(=O)NCc3ccc(OC(F)(F)F)cc3)C2)nc(OC)n1` (racemic): the EC50 entry with Hepatitis C virus [1] and in the assay on Hepatitis C virus [2] was “Not Active” in each case.
On to `CCc1ccc(S(=O)(=O)N2CCN(c3cc(OC)nc(OC)n3)CC2C(=O)NCc2c(C)nn(-c3ccccc3)c2C)cc1` (racemic), for which the pEC50 with Hepatitis C virus [1] is 5.68; in the assay on Hepatitis C virus [2], 4.68.
With `CC(C)NC(=O)c1ccc(N2CCN(S(=O)(=O)c3ccc(OC(F)(F)F)cc3)[C@@H](C(=O)NCc3ccc(OC(F)(F)F)cc3)C2)nn1`, the values for the pEC50 with Hepatitis C virus [1] and with Hepatitis C virus [2] were 8.10 and 6.86, respectively.
The like results for `COc1cc(N2CCN(S(=O)(=O)c3ccc(C(F)(F)F)cc3)C(C(=O)NCc3ccc(OC(F)(F)F)cc3)C2)nc(OC)n1` (racemic) were, in that order, 5.92 and 4.89.
In the case of `COc1cc(N2CCN(S(=O)(=O)C3CCCCC3)C(C(=O)NCc3ccc(OC(F)(F)F)cc3)C2)nc(OC)n1` (racemic), the EC50 result with Hepatitis C virus [1] and in the assay on Hepatitis C virus [2] was “Not Active” in each case.
Take `CCc1ccc(S(=O)(=O)N2CCN(c3cc(OC)nc(OC)n3)CC2C(=O)NCc2ccc(Cl)cc2)cc1` (racemic): the pEC50 was 5.68 in the assay with Hepatitis C virus [1] and 4.51 in the assay on Hepatitis C virus [2].
With `COc1cc(N2CCN(S(=O)(=O)c3cccc(-c4ccc(F)cc4)c3)C(C(=O)NCc3ccc(OC(F)(F)F)cc3)C2)nc(OC)n1` (racemic), the EC50 result in the assay with Hepatitis C virus [1] and in the assay on Hepatitis C virus [2] was “Not Active” each time.
